Results published in US20250049025A1, “SURFACTANTS FOR USE IN AGRICULTURAL FORMULATIONS” (AdvanSix Resins & Chemicals LLC, priority 2023, published 2025).
Like-named read-outs stand apart in the source and are kept apart here.

Key:
[1] = Critical micelle concentration and minimum surface tension from surface tension versus concentration in water (Wilhelmy plate method); format: physicochemical; details: for critical micelle concentration (CMC) / plateau value of minimum surface tension: in water; for interfacial activity / surfactant properties (in words): judged from CMC and minimum surface tension
Excerpt: These properties may be measured and described by various methods. One method by which surfactants may be described is by the molecule's critical micelle concentration (CMC). CMC may be defined as the concentration of a surfactant at which micelles form, and above which all additional surfactant is incorporated into micelles.
As surfactant concentration increases, surface tension decreases. Once the surface is completely overlaid with surfactant molecules, micelles begin to form. This point represents the CMC, as well as the minimum surface tension. Further addition of surfactant will not further affect the surface tension. CMC may therefore be measured by observing the change in surface tension as a function of surfactant concentration. One such method for measuring this value is the Wilhemy plate method. A Wilhelmy plate is usually a thin iridium-platinum plate attached to a balance by a wire and placed perpendicularly to the air-liquid interface. The balance is used to measure the force exerted on the plate by wetting. This value is then used to calculate the surface tension (γ) according to Equation 1: […]
wherein I is equal to the wetted perimeter (2w+2d, in which w and d are the plate thickness and width, respectively) and cos θ, the contact angle between the liquid and the plate, is assumed to be 0 in the absence of an extant literature value.
Nuclear magnetic resonance (NMR) spectroscopy was performed on a Bruker 500 MHz spectrometer. The critical micelle concentration (CMC) was determined by the Wilhelmy plate method at 23° C. with a tensiometer (DCAT 11, DataPhysics Instruments GmbH) equipped with a Pt—Ir plate. Dynamic surface tension was determined with a bubble pressure tensiometer (Krüss BP100, Krüss GmbH), at 23° C. Contact angle was determined with the optical contact angle goniometer (OCA 15 Pro, DataPhysics GmbH) equipped with a digital camera.

S. mutans (25715) = test: Minimum inhibitory concentration (MIC) test, serial dilution; format: cell-based, Streptococcus mutans
Excerpt: (§1) Surfactants of the present disclosure have been shown in a standard protocol to assess antimicrobial activities called minimum inhibitory concentration (MIC) tests.
(§2) The antimicrobial properties of surfactants were examined using known methods and standard protocols, and various types of microorganisms as treatment targets. More specifically a minimum inhibitory concentration (MIC) test protocol was applied, using serial dilution method, giving concentration-dependent microorganism growth inhibition measurements against gram positive (e.g., Streptococcus mutans, which is anaerobic, and Staphylococcus aureus, which is usually aerobic but can grow also anaerobically), gram negative (e.g., Escherichia coli, which is anaerobic, or Pseudomonas aeruginosa, which is aerobic).
(§3) Bacteria were propagated overnight in a suitable growth medium, which was a Tryptic Soy Broth. Prior to testing, the concentrations of the test organisms were established using a spectrophotometer that can measure optical density. Those bacterial samples were then diluted to about 1E3 to 1E4 CFU/mL. Thereafter, […] of the bacterial cultures thus prepared were inoculated into test wells of a 96-well plate, each containing suitable growth media, which was Tryptic Soy Agar, and once the bacterial cultures were inoculated, these wells were then treated with the test specimen, serially diluted, incubated at a temperature of 37+/−1° C. and relative humidity of not less than 90% for about 24+/−1 hour.
(§4) Test surfactants were prepared into dilution series. All dilutions were conducted serially using a multichannel pipetter into 96-well microtiter plates.
(§5) The MIC was then used to determine the approximate concentration of the test surfactant at which there was inhibition of bacterial growth. […]
(§6) Test measurements were made on replicate 96-well plates, and reported as the rounded whole number average of the determined MIC. […] Measurement variability was then reported based on the determined average in the form of MIC+/−.

S. aureus (6538) = test: as above; format: cell-based, Staphylococcus aureus
Excerpt: as §1, §2, §3, §4, §5, §6

P. aeruginosa (9027) = test: as above; format: cell-based, Pseudomonas aeruginosa; details: 24 hours, serial dilution 1.7 fold, 400 ppm max
Excerpt: as §1, §2
(§7) Bacteria were propagated overnight in a suitable growth medium, which was a Tryptic Soy Broth. Prior to testing, the concentrations of the test organisms were established using a spectrophotometer that can measure optical density. Those bacterial samples were then diluted to about 1E3 to 1E4 CFU/mL. […]
as §6

E. coli (8739) = test: as above; format: cell-based, Escherichia coli; details: 24 hours, serial dilution 1.7 fold
Excerpt: as §1, §2, §7, §6

[2] = 24 hours, serial dilution 1.7 fold, 20 ppm max

Compound | critical micelle concentration (CMC) ([1]; 23° C.) | plateau value of minimum surface tension ([1]; 23° C.) | interfacial activity / surfactant properties (in words) [1] | also measured
C[N+](C)(CCCCCC(=O)NCCC[Si](O[Si](C)(C)C)(O[Si](C)(C)C)O[Si](C)(C)C)CC(=O)O [Comparative Surfactant, N-(carboxymethyl)-6-((3-(1,1,1,5,5,5-hexamethyl-3-((trimethylsilyl)oxy)trisiloxan-3-yl)propyl)amino)-N,N-dimethyl-6-oxohexan-1-aminium bromide, reference compound] | about 17.28 mmol | about 29.16 mN/m | inferior surfactant properties | 
CCOP(=O)(CCC[N+](C)(C)CCCCCC(=O)NCCC[Si](O[Si](C)(C)C)(O[Si](C)(C)C)O[Si](C)(C)C)OCC [Surfactant 6, N-(3-(diethoxyphosphoryl)propyl)-6-((3-(1,1,1,5,5,5-hexamethyl-3-((trimethylsilyl)oxy)trisiloxan-3-yl)propyl)amino)-N,N-dimethyl-6-oxohexan-1-aminium bromide] | about 0.3989 mmol | about 20.48 mN/m | outstanding interfacial activity | MIC (S. mutans (25715); Streptococcus mutans, 24 h): 81 µg/mL; MIC (S. aureus (6538); Staphylococcus aureus, 24 h): 138 µg/mL
CCCCCCCCCCCCCC[N+](C)(C)Cc1ccccc1.[Cl-] [ADBAC, reference compound] |  |  |  | MIC (P. aeruginosa (9027)): 48 +/− 20 ppm; MIC (E. coli (8739); 20 ppm max): 16 +/− 7 ppm; MIC (S. mutans (25715); [2]): 7 +/− 3 ppm; MIC (S. aureus (6538); [2]): 7 +/− 3 ppm
C[N+](C)(CCCCCC(=O)O)CCCCCC(=O)NCCC[Si](O[Si](C)(C)C)(O[Si](C)(C)C)O[Si](C)(C)C [Surfactant 9, N-(5-carboxypentyl)-6-((3-(1,1,1,5,5,5-hexamethyl-3-((trimethylsilyl)oxy)trisiloxan-3-yl)propyl)amino)-N,N-dimethyl-6-oxohexan-1-aminium bromide] | about 0.2237 mmol | about 20.52 mN/m | excellent interfacial activity | MIC (S. mutans (25715); Streptococcus mutans, 24 hours, serial dilution 1.7 fold, 400 ppm max, read-out: MIC): 81 µg/mL; MIC (S. aureus (6538); Staphylococcus aureus, 24 hours, serial dilution 1.7 fold, 400 ppm max, read-out: MIC): 138 µg/mL
C[N+](C)(CCCCCC(=O)NCCC[Si](O[Si](C)(C)C)(O[Si](C)(C)C)O[Si](C)(C)C)Cc1ccccc1 [Surfactant 1, N-benzyl-6-((3-(1,1,1,5,5,5-hexamethyl-3-((trimethylsilyl)oxy)trisiloxan-3-yl)propyl)amino)-N,N-dimethyl-6-oxohexan-1-aminium bromide] |  | around 20.67 mN/m | outstanding interfacial activity | critical micelle concentration (CMC) ([1]; pH 8, 23° C.): about 9.883 mmol
C[N+](C)(CCO)CCCCCC(=O)NCCC[Si](O[Si](C)(C)C)(O[Si](C)(C)C)O[Si](C)(C)C [Surfactant 8, 6-((3-(1,1,1,5,5,5-hexamethyl-3-((trimethylsilyl)oxy)trisiloxan-3-yl)propyl)amino)-N-(2-hydroxyethyl)-N,N-dimethyl-6-oxohexan-1-aminium iodide] | about 0.9986 mmol | about 20.41 mN/m | outstanding interfacial activity | 
C[N+](C)(CCCO)CCCCCC(=O)NCCC[Si](O[Si](C)(C)C)(O[Si](C)(C)C)O[Si](C)(C)C [Surfactant 7, 6-((3-(1,1,1,5,5,5-hexamethyl-3-((trimethylsilyl)oxy)trisiloxan-3-yl)propyl)amino)-N-(3-hydroxypropyl)-N,N-dimethyl-6-oxohexan-1-aminium iodide] | about 0.4568 mmol | about 20.61 mN/m | outstanding interfacial activity | MIC (P. aeruginosa (9027); Pseudomonas aeruginosa, read-out: MIC): 81 µg/mL; MIC (E. coli (8739); Escherichia coli, 400 ppm max, read-out: MIC): 81 µg/mL
CCOC(=O)C[N+](C)(C)CCCCCC(=O)NCCC[Si](O[Si](C)(C)C)(O[Si](C)(C)C)O[Si](C)(C)C [Surfactant 2, N-(2-ethoxy-2-oxoethyl)-6-((3-(1,1,1,5,5,5-hexamethyl-3-((trimethylsilyl)oxy)trisiloxan-3-yl)propyl)amino)-N,N-dimethyl-6-oxohexan-1-aminium bromide] | about 0.2171 mmol | around 20.36 mN/m | outstanding interfacial activity | 
C[N+](C)(CCCCCC(=O)NCCC[Si](O[Si](C)(C)C)(O[Si](C)(C)C)O[Si](C)(C)C)CCC[N+](C)(C)CCCCCC(=O)NCCC[Si](O[Si](C)(C)C)(O[Si](C)(C)C)O[Si](C)(C)C [Surfactant 10, N^1,N^3-bis(6-((3-(1,1,1,5,5,5-hexamethyl-3-((trimethylsilyl)oxy)trisiloxan-3-yl)propyl)amino)-6-oxohexyl)-N^1,N^1,N^3,N^3-tetramethylpropane-1,3-diaminium dibromide] | about 0.0631 mmol | about 22.12 mN/m | has interfacial activity | 
COCCOCC[N+](C)(C)CCCCCC(=O)NCCC[Si](O[Si](C)(C)C)(O[Si](C)(C)C)O[Si](C)(C)C [Surfactant 5, 6-((3-(1,1,1,5,5,5-hexamethyl-3-((trimethylsilyl)oxy)trisiloxan-3-yl)propyl)amino)-N-(2-(2-methoxyethoxy)ethyl)-N,N-dimethyl-6-oxohexan-1-aminium bromide] | about 0.4622 mmol | about 20.40 mN/m | outstanding interfacial activity | 
C=CC[N+](C)(C)CCCCCC(=O)NCCC[Si](O[Si](C)(C)C)(O[Si](C)(C)C)O[Si](C)(C)C [Surfactant 3, N-allyl-6-((3-(1,1,1,5,5,5-hexamethyl-3-((trimethylsilyl)oxy)trisiloxan-3-yl)propyl)amino)-N,N-dimethyl-6-oxohexan-1-aminium iodide] | about 1.3599 mmol | about 20.67 mN/m | outstanding interfacial activity | 
C#CC[N+](C)(C)CCCCCC(=O)NCCC[Si](O[Si](C)(C)C)(O[Si](C)(C)C)O[Si](C)(C)C [Surfactant 4, 6-((3-(1,1,1,5,5,5-hexamethyl-3-((trimethylsilyl)oxy)trisiloxan-3-yl)propyl)amino)-N,N-dimethyl-6-oxo-N-(prop-2-yn-1-yl)hexan-1-aminium bromide] | about 0.2419 mmol | about 20.54 mN/m | outstanding interfacial activity | 
